According to the NIST ThermoML archive (doi:10.1016/j.jct.2017.07.008):
Several values for one entry are separate records, joined by “and”; a condition that tells them apart may be missing. Equal values may be shown once. ± gives the expanded uncertainty stated by the source.

Conditions: for surface tension liquid-gas: Drop volume; for viscosity / speed of sound / mass density: Liquid; for viscosity: Capillary tube (Ostwald / Ubbelohde) method; for speed of sound: Frequency=3 MHz, Single path-length method; for mass density: Vibrating tube method

OCc1cccs1 [2-thiophenemethanol]
Conditions	surface tension liquid-gas [mN/m]
283.15 K	45.2 ± 0.3
285.65 K	44.93 ± 0.3
288.15 K	44.61 ± 0.3
290.65 K	44.39 ± 0.3
293.15 K	44.13 ± 0.3
295.65 K	43.83 ± 0.3
298.15 K	43.56 ± 0.3
300.65 K	43.29 ± 0.3
303.15 K	43.04 ± 0.3
305.65 K	42.78 ± 0.3
308.15 K	42.54 ± 0.3
310.65 K	42.27 ± 0.29
313.15 K	41.96 ± 0.29

Conditions	mass density	speed of sound [m/s]	viscosity [mPa·s]
283.15 K, 100 kPa	1215.5 ± 0.54 kg/m3	1545.7 ± 0.78	13.16 ± 0.15
283.15 K, 2000 kPa	1216.47 ± 0.54 kg/m3	–	–
283.15 K, 5000 kPa	1217.99 ± 0.55 kg/m3	–	–
283.15 K, 7000 kPa	1218.98 ± 0.56 kg/m3	–	–
283.15 K, 10000 kPa	1220.46 ± 0.57 kg/m3	–	–
283.15 K, 15000 kPa	1222.87 ± 0.59 kg/m3	–	–
283.15 K, 20000 kPa	1225.22 ± 0.62 kg/m3	–	–
283.15 K, 25000 kPa	1227.52 ± 0.64 kg/m3	–	–
283.15 K, 30000 kPa	1229.77 ± 0.67 kg/m3	–	–
283.15 K, 35000 kPa	1231.96 ± 0.7 kg/m3	–	–
283.15 K, 40000 kPa	1234.11 ± 0.74 kg/m3	–	–
283.15 K, 45000 kPa	1236.21 ± 0.77 kg/m3	–	–
283.15 K, 50000 kPa	1238.27 ± 0.81 kg/m3	–	–
283.15 K, 55000 kPa	1240.29 ± 0.84 kg/m3	–	–
283.15 K, 60000 kPa	1242.27 ± 0.88 kg/m3	–	–
283.15 K, 65000 kPa	1244.21 ± 0.92 kg/m3	–	–
285.65 K, 100 kPa	1213.3 ± 0.54 kg/m3	1538.2 ± 0.78	11.81 ± 0.13
288.15 K, 100 kPa	1211.11 ± 0.54 kg/m3 and 1211.08 ± 0.54 kg/m3	1530.8 ± 0.78	10.6 ± 0.12
288.15 K, 2000 kPa	1212.1 ± 0.54 kg/m3	–	–
288.15 K, 5000 kPa	1213.64 ± 0.55 kg/m3	–	–
288.15 K, 7000 kPa	1214.66 ± 0.56 kg/m3	–	–
288.15 K, 10000 kPa	1216.16 ± 0.57 kg/m3	–	–
288.15 K, 15000 kPa	1218.62 ± 0.59 kg/m3	–	–
288.15 K, 20000 kPa	1221.01 ± 0.62 kg/m3	–	–
288.15 K, 25000 kPa	1223.35 ± 0.64 kg/m3	–	–
288.15 K, 30000 kPa	1225.64 ± 0.67 kg/m3	–	–
288.15 K, 35000 kPa	1227.87 ± 0.7 kg/m3	–	–
288.15 K, 40000 kPa	1230.06 ± 0.73 kg/m3	–	–
288.15 K, 45000 kPa	1232.19 ± 0.76 kg/m3	–	–
288.15 K, 50000 kPa	1234.29 ± 0.8 kg/m3	–	–
288.15 K, 55000 kPa	1236.34 ± 0.84 kg/m3	–	–
288.15 K, 60000 kPa	1238.35 ± 0.87 kg/m3	–	–
288.15 K, 65000 kPa	1240.32 ± 0.91 kg/m3	–	–
290.65 K, 100 kPa	1208.87 ± 0.54 kg/m3	1523.4 ± 0.78	9.578 ± 0.11
293.15 K, 100 kPa	1206.69 ± 0.54 kg/m3 and 1206.66 ± 0.54 kg/m3	1516 ± 0.78	8.703 ± 0.099
293.15 K, 2000 kPa	1207.7 ± 0.54 kg/m3	–	–
293.15 K, 5000 kPa	1209.28 ± 0.55 kg/m3	–	–
293.15 K, 7000 kPa	1210.32 ± 0.56 kg/m3	–	–
293.15 K, 10000 kPa	1211.85 ± 0.57 kg/m3	–	–
293.15 K, 15000 kPa	1214.36 ± 0.59 kg/m3	–	–
293.15 K, 20000 kPa	1216.8 ± 0.61 kg/m3	–	–
293.15 K, 25000 kPa	1219.18 ± 0.64 kg/m3	–	–
293.15 K, 30000 kPa	1221.5 ± 0.66 kg/m3	–	–
293.15 K, 35000 kPa	1223.78 ± 0.69 kg/m3	–	–
293.15 K, 40000 kPa	1226 ± 0.72 kg/m3	–	–
293.15 K, 45000 kPa	1228.17 ± 0.76 kg/m3	–	–
293.15 K, 50000 kPa	1230.29 ± 0.79 kg/m3	–	–
293.15 K, 55000 kPa	1232.38 ± 0.83 kg/m3	–	–
293.15 K, 60000 kPa	1234.42 ± 0.87 kg/m3	–	–
293.15 K, 65000 kPa	1236.41 ± 0.9 kg/m3	–	–
295.65 K, 100 kPa	1204.45 ± 0.54 kg/m3	1508.6 ± 0.78	7.913 ± 0.09
298.15 K, 100 kPa	1202.27 ± 0.54 kg/m3 and 1202.23 ± 0.54 kg/m3	1501.2 ± 0.78	7.23 ± 0.082
298.15 K, 2000 kPa	1203.3 ± 0.54 kg/m3	–	–
298.15 K, 5000 kPa	1204.91 ± 0.55 kg/m3	–	–
298.15 K, 7000 kPa	1205.97 ± 0.56 kg/m3	–	–
298.15 K, 10000 kPa	1207.53 ± 0.57 kg/m3	–	–
298.15 K, 15000 kPa	1210.08 ± 0.59 kg/m3	–	–
298.15 K, 20000 kPa	1212.57 ± 0.61 kg/m3	–	–
298.15 K, 25000 kPa	1215 ± 0.63 kg/m3	–	–
298.15 K, 30000 kPa	1217.36 ± 0.66 kg/m3	–	–
298.15 K, 35000 kPa	1219.67 ± 0.69 kg/m3	–	–
298.15 K, 40000 kPa	1221.93 ± 0.72 kg/m3	–	–
298.15 K, 45000 kPa	1224.14 ± 0.75 kg/m3	–	–
298.15 K, 50000 kPa	1226.3 ± 0.79 kg/m3	–	–
298.15 K, 55000 kPa	1228.41 ± 0.82 kg/m3	–	–
298.15 K, 60000 kPa	1230.48 ± 0.86 kg/m3	–	–
298.15 K, 65000 kPa	1232.51 ± 0.9 kg/m3	–	–
300.65 K, 100 kPa	1200.01 ± 0.54 kg/m3	1493.9 ± 0.78	6.607 ± 0.076
303.15 K, 100 kPa	1197.82 ± 0.54 kg/m3 and 1197.79 ± 0.54 kg/m3	1486.6 ± 0.78	6.079 ± 0.07
303.15 K, 2000 kPa	1198.88 ± 0.54 kg/m3	–	–
303.15 K, 5000 kPa	1200.52 ± 0.55 kg/m3	–	–
303.15 K, 7000 kPa	1201.6 ± 0.56 kg/m3	–	–
303.15 K, 10000 kPa	1203.2 ± 0.57 kg/m3	–	–
303.15 K, 15000 kPa	1205.8 ± 0.59 kg/m3	–	–
303.15 K, 20000 kPa	1208.33 ± 0.61 kg/m3	–	–
303.15 K, 25000 kPa	1210.8 ± 0.63 kg/m3	–	–
303.15 K, 30000 kPa	1213.21 ± 0.66 kg/m3	–	–
303.15 K, 35000 kPa	1215.57 ± 0.68 kg/m3	–	–
303.15 K, 40000 kPa	1217.86 ± 0.71 kg/m3	–	–
303.15 K, 45000 kPa	1220.11 ± 0.75 kg/m3	–	–
303.15 K, 50000 kPa	1222.3 ± 0.78 kg/m3	–	–
303.15 K, 55000 kPa	1224.45 ± 0.81 kg/m3	–	–
303.15 K, 60000 kPa	1226.55 ± 0.85 kg/m3	–	–
303.15 K, 65000 kPa	1228.61 ± 0.89 kg/m3	–	–
305.65 K, 100 kPa	1195.57 ± 0.54 kg/m3	1479.3 ± 0.78	5.609 ± 0.065
308.15 K, 100 kPa	1193.36 ± 0.53 kg/m3 and 1193.34 ± 0.53 kg/m3	1472 ± 0.78	5.18 ± 0.06
308.15 K, 2000 kPa	1194.44 ± 0.54 kg/m3	–	–
308.15 K, 5000 kPa	1196.12 ± 0.55 kg/m3	–	–
308.15 K, 7000 kPa	1197.22 ± 0.55 kg/m3	–	–
308.15 K, 10000 kPa	1198.85 ± 0.56 kg/m3	–	–
308.15 K, 15000 kPa	1201.5 ± 0.58 kg/m3	–	–
308.15 K, 20000 kPa	1204.09 ± 0.6 kg/m3	–	–
308.15 K, 25000 kPa	1206.61 ± 0.63 kg/m3	–	–
308.15 K, 30000 kPa	1209.06 ± 0.65 kg/m3	–	–
308.15 K, 35000 kPa	1211.45 ± 0.68 kg/m3	–	–
308.15 K, 40000 kPa	1213.79 ± 0.71 kg/m3	–	–
308.15 K, 45000 kPa	1216.07 ± 0.74 kg/m3	–	–
308.15 K, 50000 kPa	1218.3 ± 0.77 kg/m3	–	–
308.15 K, 55000 kPa	1220.48 ± 0.81 kg/m3	–	–
308.15 K, 60000 kPa	1222.62 ± 0.84 kg/m3	–	–
308.15 K, 65000 kPa	1224.71 ± 0.88 kg/m3	–	–
310.65 K, 100 kPa	1191.11 ± 0.53 kg/m3	1464.8 ± 0.78	4.795 ± 0.056
313.15 K, 100 kPa	1188.89 ± 0.53 kg/m3 and 1188.87 ± 0.53 kg/m3	1457.6 ± 0.78	4.455 ± 0.052
313.15 K, 2000 kPa	1189.99 ± 0.54 kg/m3	–	–
313.15 K, 5000 kPa	1191.7 ± 0.55 kg/m3	–	–
313.15 K, 7000 kPa	1192.83 ± 0.55 kg/m3	–	–
313.15 K, 10000 kPa	1194.49 ± 0.56 kg/m3	–	–
313.15 K, 15000 kPa	1197.2 ± 0.58 kg/m3	–	–
313.15 K, 20000 kPa	1199.83 ± 0.6 kg/m3	–	–
313.15 K, 25000 kPa	1202.4 ± 0.62 kg/m3	–	–
313.15 K, 30000 kPa	1204.9 ± 0.65 kg/m3	–	–
313.15 K, 35000 kPa	1207.33 ± 0.67 kg/m3	–	–
313.15 K, 40000 kPa	1209.71 ± 0.7 kg/m3	–	–
313.15 K, 45000 kPa	1212.03 ± 0.73 kg/m3	–	–
313.15 K, 50000 kPa	1214.3 ± 0.76 kg/m3	–	–
